Experimental data: ChEMBL document CHEMBL1141902, “Functionalization at position 3 of the phenyl ring of the potent mGluR5 noncompetitive antagonists MPEP” (Bioorg Med Chem Lett, 2005)

Experiments:
[1] = biological target: T1, Metabotropic glutamate receptor 5 (Rattus norvegicus, UniProt P31424); assay: Concentration required for 50% inhibition of rat metabotropic glutamate receptor 5 was determined using inositol phosphate hydrolysis assay
[2] = biological target: T1, Metabotropic glutamate receptor 5; assay: In vitro binding affinity of compound towards rat metabotropic glutamate receptor 5 was determined by displacement of [3H]M-MPEP from rat whole brain

T1 sequence (P31424 whole entry): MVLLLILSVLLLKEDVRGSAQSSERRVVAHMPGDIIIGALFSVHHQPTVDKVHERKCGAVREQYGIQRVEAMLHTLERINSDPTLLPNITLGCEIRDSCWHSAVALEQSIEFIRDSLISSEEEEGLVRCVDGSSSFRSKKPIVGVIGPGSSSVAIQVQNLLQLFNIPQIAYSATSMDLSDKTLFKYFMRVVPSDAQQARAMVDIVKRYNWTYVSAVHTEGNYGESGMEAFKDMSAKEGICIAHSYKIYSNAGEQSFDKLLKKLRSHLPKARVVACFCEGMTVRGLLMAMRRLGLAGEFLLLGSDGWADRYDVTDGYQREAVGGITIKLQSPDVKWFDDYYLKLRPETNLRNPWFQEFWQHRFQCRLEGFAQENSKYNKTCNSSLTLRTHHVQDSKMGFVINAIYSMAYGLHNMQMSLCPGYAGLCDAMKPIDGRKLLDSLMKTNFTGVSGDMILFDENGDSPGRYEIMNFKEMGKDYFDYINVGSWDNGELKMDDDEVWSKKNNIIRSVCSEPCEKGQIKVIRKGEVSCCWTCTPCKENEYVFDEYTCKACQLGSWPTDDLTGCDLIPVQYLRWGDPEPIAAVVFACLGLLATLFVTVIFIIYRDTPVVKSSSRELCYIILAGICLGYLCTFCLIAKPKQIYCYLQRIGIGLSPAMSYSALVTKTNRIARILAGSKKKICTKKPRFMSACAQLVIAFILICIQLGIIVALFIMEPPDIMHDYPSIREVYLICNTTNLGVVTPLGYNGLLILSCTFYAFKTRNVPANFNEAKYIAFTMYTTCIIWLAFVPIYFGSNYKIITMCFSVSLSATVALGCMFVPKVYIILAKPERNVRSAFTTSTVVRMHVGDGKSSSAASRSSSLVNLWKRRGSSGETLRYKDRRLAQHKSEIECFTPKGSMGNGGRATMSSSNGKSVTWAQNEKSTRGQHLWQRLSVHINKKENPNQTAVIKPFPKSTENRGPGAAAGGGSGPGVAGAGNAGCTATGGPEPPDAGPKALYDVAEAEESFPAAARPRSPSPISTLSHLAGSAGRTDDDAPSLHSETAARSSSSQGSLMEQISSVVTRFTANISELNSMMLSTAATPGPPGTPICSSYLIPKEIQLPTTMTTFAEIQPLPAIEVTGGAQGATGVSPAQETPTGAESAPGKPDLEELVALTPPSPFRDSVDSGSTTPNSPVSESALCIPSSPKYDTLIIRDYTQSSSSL

Compound: Cc1cccc(C#Cc2cccc(OCc3cccc(I)c3)c2)n1
- IC50 [1]: 1980 nM

Compound: Cc1cccc(C#Cc2cccc(OCCc3ccc(F)cc3)c2)n1
- IC50 [1]: 2050 nM

Compound: Cc1cccc(C#Cc2cccc(N)c2)n1
- IC50 [1]: 188 nM

Compound: Cc1cccc(C#Cc2cccc(OCCc3ccccc3)c2)n1
- IC50 [1]: 1590 nM

Compound: COC(=O)COc1cccc(C#Cc2cccc(C)n2)c1
- IC50 [1]: 2400 nM

Compound: CC(=O)c1cccc(C#Cc2cccc(C)n2)c1
- IC50 [1]: 146 nM

Compound: Cc1cccc(C#Cc2cccc(OCC3CC3)c2)n1
- IC50 [1]: 420 nM

Compound: Cc1cccc(C#Cc2cccc(OCCCCc3ccccc3)c2)n1
- IC50 [1]: 1160 nM

Compound: Cc1cccc(C#Cc2cccc([N+](=O)[O-])c2)n1
- IC50 [1]: 13 nM

Compound: COc1cccc(-c2cncc(C#Cc3cccc(C)n3)c2)c1
- IC50 [1]: 282 nM
- Ki [2]: 74 nM

Compound: Cc1ccc(S(=O)(=O)Oc2cccc(C#Cc3cccc(C)n3)c2)cc1
- IC50 [1]: > 10000 nM

Compound: Cc1cccc(C#Cc2cccc(-c3ccccc3)c2)n1
- IC50 [1]: 629 nM
- Ki [2]: 993 nM

Compound: Cc1cccc(C#Cc2cccc(OCCCc3ccccc3)c2)n1
- IC50 [1]: 1190 nM

Compound: Cc1cccc(C#Cc2cccc(OC(=O)Cc3ccccc3)c2)n1
- IC50 [1]: 740 nM

Compound: Cc1cccc(C#Cc2cccc(OS(C)(=O)=O)c2)n1
- IC50 [1]: 180 nM

Compound: Cc1cccc(C#Cc2cncc(-c3ccco3)c2)n1
- IC50 [1]: 205 nM
- Ki [2]: 6.5 nM

Compound: Cc1cccc(C#Cc2cccc(OC(=O)CCc3ccccc3)c2)n1
- IC50 [1]: 890 nM

Compound: Cc1cccc(C#Cc2cncc(-c3cccs3)c2)n1
- IC50 [1]: 271 nM
- Ki [2]: 155 nM

Compound: COc1cccc(COc2cccc(C#Cc3cccc(C)n3)c2)c1
- IC50 [1]: 1300 nM

Compound: Cc1cccc(C#Cc2cccc(C#N)c2)n1
- IC50 [1]: 5 nM

Compound: COC(=O)c1cccc(C#Cc2cccc(C)n2)c1
- IC50 [1]: 208 nM

Compound: COc1cccc(-c2cccc(C#Cc3cccc(C)n3)c2)c1
- IC50 [1]: 493 nM
- Ki [2]: 2360 nM

Compound: Cc1cccc(C#Cc2cccc(-c3cccs3)c2)n1
- IC50 [1]: 656 nM
- Ki [2]: 147 nM

Compound: Cc1cccc(C#Cc2cccc(OC(=O)CCCc3ccccc3)c2)n1
- IC50 [1]: 1170 nM

Compound: COc1cccc(C#Cc2cccc(C)n2)c1 [M-MPEP]
- IC50 [1]: 8 nM

Compound: COc1cccc(C(=O)Oc2cccc(C#Cc3cccc(C)n3)c2)c1
- IC50 [1]: 1720 nM

Compound: C=CCOc1cccc(C#Cc2cccc(C)n2)c1
- IC50 [1]: 290 nM

Compound: Cc1cccc(C#Cc2cccc(OC(=O)c3ccccc3)c2)n1
- IC50 [1]: 1500 nM

Compound: Cc1cccc(C#Cc2cncc(-c3ccccc3)c2)n1
- IC50 [1]: 20 nM
- Ki [2]: 1.7 nM

Compound: Cc1cccc(C#Cc2cccc(-c3ccco3)c2)n1
- IC50 [1]: 371 nM
- Ki [2]: 36 nM

Compound: Cc1cccc(C#Cc2cccc(OC(=O)CCCBr)c2)n1
- IC50 [1]: 3350 nM

Compound: Cc1cccc(C#Cc2cccc(OCc3ccccc3)c2)n1
- IC50 [1]: 1840 nM

Compound: Cc1cccc(C#Cc2cccc(OC(=O)c3cccc(I)c3)c2)n1
- IC50 [1]: 1100 nM

Compound: Cc1cccc(C#Cc2cccc(OC(=O)c3ccco3)c2)n1
- IC50 [1]: 1010 nM

Compound: Cc1cccc(C#Cc2cncc(-c3cccc(C)n3)c2)n1
- IC50 [1]: 257 nM
- Ki [2]: 13 nM
